Among the test systems are LOX IMVI melanoma; SN12C renal; A549 NSCLC; SK-MEL-5 melanoma; UACC-62 melanoma; TK-10 renal; OVCAR-3 ovarian; KM12 colon; PC-3 prostate; MDA-MB-435.
What all share (experiment): NCI tumour cell line growth inhibition, 48 h

Several values for one entry are separate records, joined by “and”; a condition that tells them apart may be missing. Equal values may be shown once.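 Test compounds were applied to cells in 96-well plates for 48 hours at 5 doses. The concentration for 50% growth inhibition is given as GI50. TGI marks complete inhibition of growth.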

Regarding `CC1(C)CCc2cc3c(cc2O1)OCC1c2cc4c(cc2OC31)OCO4` (stereo unspecified), the TGI in the assay on LOX IMVI melanoma, in the assay on SN12C renal, in the assay on A549 NSCLC, in the assay on SK-MEL-5 melanoma, with UACC-62 melanoma and in the assay with TK-10 renal was over 100 µM throughout. Moreover, the TGI in the assay with OVCAR-3 ovarian and with KM12 colon was over 100 µM each time.
For the compound `COC(=O)C1=C(C(=O)OC)C23CC1C1C(C(=O)OC)=C(C(=O)OC)C12C1C=CC3C2C(=O)OC(=O)C21` (stereo unspecified), the TGI is over 100 µM in the assay on SN12C renal; over 100 µM in the assay with A549 NSCLC; over 100 µM in the assay on SK-MEL-5 melanoma; over 100 µM in the assay with UACC-62 melanoma; over 100 µM in the assay on TK-10 renal; 17.6 µM in the assay with OVCAR-3 ovarian. The TGI in the assay on KM12 colon was over 100 µM.
In the case of `CC(=O)O[C@]1(C)OC(=O)[C@@H](C)N1[N+](=O)[O-]`, the TGI with LOX IMVI melanoma, with SN12C renal, in the assay on A549 NSCLC, in the assay on SK-MEL-5 melanoma, in the assay with UACC-62 melanoma and in the assay on TK-10 renal was over 100 µM throughout. The TGI with OVCAR-3 ovarian and in the assay with KM12 colon was over 100 µM each time.
Consider `O=C1c2ccccc2C(=O)c2c(NCCNCCO)ccc(O)c21`, for which the TGI came to 2.85 µM in the assay on LOX IMVI melanoma; 12.8 µM in the assay with SN12C renal; 11.2 µM in the assay on A549 NSCLC; 12.7 µM in the assay on SK-MEL-5 melanoma; 13.6 µM in the assay with UACC-62 melanoma; 15.3 µM in the assay on TK-10 renal. Moreover, the TGI was 19.5 µM with OVCAR-3 ovarian and 8.1 µM in the assay on KM12 colon.
For `NNC(=S)N/N=C(/C(=O)Nc1cc(Cl)ccc1Cl)C1C(=O)Nc2ccccc2S1=O` (stereo unspecified), the TGI with LOX IMVI melanoma, in the assay with SN12C renal, with A549 NSCLC, with SK-MEL-5 melanoma, in the assay on UACC-62 melanoma and with TK-10 renal was over 100 µM each time. The TGI in the assay on OVCAR-3 ovarian and in the assay with KM12 colon was over 100 µM in each case.
Consider `CCOC(=O)C1=C(O)CSC1=Nc1ccccc1`, for which the TGI in the assay with LOX IMVI melanoma, with SN12C renal, in the assay on A549 NSCLC, in the assay on UACC-62 melanoma, in the assay on TK-10 renal and with OVCAR-3 ovarian was over 100 µM each time. The compound also gave a TGI in the assay with KM12 colon of over 100 µM.
With `CCOc1cc2c(cc1O)/C(=N\O)C[C@@H]1[C@@H]2CC[C@]2(C)[C@@H](O)CC[C@@H]12`, the GI50 is 0.767 µM and 0.491 µM in the assay with PC-3 prostate; 0.00721 µM in the assay with LOX IMVI melanoma; 0.059 µM with SN12C renal; 0.0854 µM in the assay with A549 NSCLC; 0.00618 µM in the assay with SK-MEL-5 melanoma; 0.00607 µM in the assay on UACC-62 melanoma. Moreover, the GI50 with OVCAR-3 ovarian is 0.0114 µM and 0.0299 µM; in the assay with KM12 colon, 0.0797 µM. In addition, the TGI was over 100 µM in the assay with PC-3 prostate; over 63.8 µM in the assay with LOX IMVI melanoma; over 100 µM in the assay with SN12C renal; over 100 µM in the assay with A549 NSCLC; 1.32 µM and 10.2 µM in the assay on SK-MEL-5 melanoma; 28.8 µM with UACC-62 melanoma. The compound also had a TGI in the assay on TK-10 renal of over 100 µM.
With `O=c1cccccc1NCCCCCCNc1cccccc1=O`, the TGI in the assay with LOX IMVI melanoma, in the assay with SN12C renal, with A549 NSCLC, with SK-MEL-5 melanoma, with UACC-62 melanoma and with TK-10 renal was over 100 µM each time. The TGI in the assay with OVCAR-3 ovarian and in the assay on KM12 colon was over 100 µM throughout.
As to `COc1ccc2c(c1)[n+]([O-])c(-c1ccccc1)c(N)[n+]2[O-]`, the TGI with LOX IMVI melanoma was over 100 µM; in the assay with SN12C renal, over 100 µM; in the assay with A549 NSCLC, over 100 µM; in the assay with SK-MEL-5 melanoma it was 35 µM; in the assay on UACC-62 melanoma, over 100 µM; with TK-10 renal, over 100 µM. For the same compound, the TGI in the assay on OVCAR-3 ovarian and in the assay on KM12 colon was over 100 µM each time.
With `O=C1OCCC1C(O)C1c2ccccc2-c2ccccc21` (stereo unspecified), the TGI in the assay with SN12C renal, in the assay on A549 NSCLC, with UACC-62 melanoma, in the assay on TK-10 renal, in the assay with OVCAR-3 ovarian and with KM12 colon was over 100 µM throughout.
`COc1cnc2c(c1)C(=O)c1c-2n(CCCN2CCC(O)CC2)c(=O)c2cc(F)ccc12`: the GI50 in the assay with LOX IMVI melanoma was 0.127 µM; in the assay on A549 NSCLC, 0.0899 µM; with SK-MEL-5 melanoma, 0.201 µM; in the assay with UACC-62 melanoma, 0.24 µM; with TK-10 renal it was 0.323 µM; in the assay with OVCAR-3 ovarian it was 0.254 µM. Further, the GI50 in the assay on MDA-MB-435 was 0.382 µM. For the same compound, the TGI in the assay on LOX IMVI melanoma worked out at 0.295 µM; in the assay on A549 NSCLC it was 0.32 µM; with SK-MEL-5 melanoma it was 0.628 µM; with UACC-62 melanoma it was 0.918 µM; in the assay with TK-10 renal, 1.59 µM; with OVCAR-3 ovarian, 1.18 µM. In the assay on MDA-MB-435, the TGI amounted to 5.72 µM.
For the compound `Cc1noc(C)c1-c1cc(O)cc(C(O)c2ccccc2)c1` (stereo unspecified), the GI50 in the assay with LOX IMVI melanoma was 3.6 µM; in the assay on SN12C renal, 17.2 µM; in the assay on A549 NSCLC, 22.4 µM; in the assay on SK-MEL-5 melanoma, 5.95 µM; in the assay on TK-10 renal it was 3.99 µM; in the assay with OVCAR-3 ovarian, 6.65 µM. For the same compound, the figures for the GI50 with KM12 colon and in the assay on MDA-MB-435 were 8.2 µM and 3.48 µM, respectively. Further, the TGI is 80.5 µM in the assay with LOX IMVI melanoma; over 100 µM with SN12C renal; over 100 µM in the assay on A549 NSCLC; 29.5 µM in the assay with SK-MEL-5 melanoma; over 100 µM with TK-10 renal; over 100 µM in the assay with OVCAR-3 ovarian. Further, the TGI with KM12 colon and with MDA-MB-435 was over 100 µM each time.
Consider `CC(C)(C)c1[nH]cnc1/C=c1\[nH]c(=O)/c(=C/c2ccccc2)[nH]c1=O`, for which the GI50 in the assay with PC-3 prostate was under 0.01 µM; in the assay with LOX IMVI melanoma, under 0.0121 µM; in the assay on SN12C renal, under 0.0144 µM; with A549 NSCLC, 0.0181 µM; in the assay on SK-MEL-5 melanoma it was under 0.0133 µM; in the assay on UACC-62 melanoma, under 0.01 µM. Further, the figures for the GI50 in the assay on TK-10 renal, with OVCAR-3 ovarian and in the assay on KM12 colon were 14.1 µM, under 0.01 µM and under 0.01 µM, respectively. For the same compound, the TGI with PC-3 prostate came out at 36.1 µM; in the assay on LOX IMVI melanoma, 17.7 µM; with SN12C renal it was 69.6 µM; in the assay with A549 NSCLC, 41.5 µM; in the assay on SK-MEL-5 melanoma, 0.137 µM; with UACC-62 melanoma it was 21.2 µM. Moreover, the TGI is over 100 µM in the assay with TK-10 renal, 19.2 µM in the assay on OVCAR-3 ovarian and 7.44 µM with KM12 colon.

These data come from PubChem BioAssay (NCI).
